In brackets after ≈: the same amount, converted by molar mass.
What was measured:
Assay type in all cases: functional
Staphylococcus aureus [1] = experiment: Antimicrobial activity against methicillin-sensitive Staphylococcus aureus ATCC 29213
[2] = tested on: Acinetobacter calcoaceticus; experiment: Antimicrobial activity against Acinetobacter calcoaceticus ATCC 19606
Citrobacter freundii = experiment: Antimicrobial activity against Citrobacter freundii ATCC 43864
Enterococcus faecalis [3] = experiment: Antimicrobial activity against Vancomycin-resistant Enterococcus faecalis ATCC 51299
Providencia rettgeri = experiment: Antimicrobial activity against Providencia rettgeri ATCC 31052
Klebsiella pneumoniae [4] = experiment: Antimicrobial activity against Klebsiella pneumoniae 7
[5] = tested on: Staphylococcus epidermidis; experiment: Antimicrobial activity against methicillin-susceptible Staphylococcus epidermidis ATCC 12228
Klebsiella pneumoniae [6] = experiment: Antimicrobial activity against ESBL-producing Klebsiella pneumoniae ATCC 700603
Enterococcus faecalis [7] = experiment: Antimicrobial activity against Vancomycin-sensitive Enterococcus faecalis ATCC 29212
Escherichia coli = experiment: Antimicrobial activity against Escherichia coli ATCC 25922
Pseudomonas aeruginosa = experiment: Antimicrobial activity against Pseudomonas aeruginosa ATCC 27853
Enterococcus faecium = experiment: Antimicrobial activity against vancomycin-resistant Enterococcus faecium ATCC 700221
Proteus vulgaris = experiment: Antimicrobial activity against Proteus vulgaris ATCC 29905
Klebsiella pneumoniae [8] = experiment: Antimicrobial activity against NDM-1 producing Klebsiella pneumoniae ATCC BAA-2146
Staphylococcus aureus [9] = experiment: Antimicrobial activity against methicillin- resistant Staphylococcus aureus ATCC 33591
Klebsiella aerogenes = experiment: Antimicrobial activity against Enterobacter aerogenes ATCC 45102

`CC(C)NC(=N)c1ccc2cc(-c3ccc(Oc4ccc(-c5cc6ccc(C(=N)NC(C)C)cc6[nH]5)c(C(F)(F)F)c4)cc3)[nH]c2c1` showed an MIC (Staphylococcus aureus [1]) of 2 µg/mL (≈ 3.14 µM), an MIC [2] of 64 µg/mL (≈ 101 µM) and an MIC (Citrobacter freundii) of 16 µg/mL (≈ 25.1 µM). The MIC (Enterococcus faecalis [3]) was 2 µg/mL (≈ 3.14 µM), the MIC (Providencia rettgeri) was 64 µg/mL (≈ 101 µM) and the MIC (Klebsiella pneumoniae [4]) was 16 µg/mL (≈ 25.1 µM). The MIC [5] was 2 µg/mL (≈ 3.14 µM), the MIC (Klebsiella pneumoniae [6]) was 16 µg/mL (≈ 25.1 µM) and the MIC (Enterococcus faecalis [7]) was 2 µg/mL (≈ 3.14 µM). It also gave an MIC (Escherichia coli) of 16 µg/mL (≈ 25.1 µM), an MIC (Pseudomonas aeruginosa) of 32 µg/mL (≈ 50.3 µM) and an MIC (Enterococcus faecium) of 2 µg/mL (≈ 3.14 µM). For the same compound, the MIC (Proteus vulgaris) was 16 µg/mL (≈ 25.1 µM), the MIC (Klebsiella pneumoniae [8]) was 16 µg/mL (≈ 25.1 µM) and the MIC (Staphylococcus aureus [9]) was 2 µg/mL (≈ 3.14 µM).
Compound `C/N=C(\NC)c1ccc2cc(-c3ccc(Oc4ccc(-c5cc6ccc(C(=N)NC)cc6[nH]5)cc4)cc3)[nH]c2c1` has an MIC (Staphylococcus aureus [1]) of 0.5 µg/mL (≈ 0.949 µM), an MIC (Citrobacter freundii) of 128 µg/mL (≈ 243 µM) and an MIC (Enterococcus faecalis [3]) of 0.25 µg/mL (≈ 0.475 µM). It also gave an MIC (Klebsiella aerogenes) of 64 µg/mL (≈ 122 µM), an MIC (Providencia rettgeri) of 128 µg/mL (≈ 243 µM) and an MIC (Klebsiella pneumoniae [6]) of 64 µg/mL (≈ 122 µM). For the same compound, the MIC (Enterococcus faecalis [7]) was 1 µg/mL (≈ 1.9 µM), the MIC (Escherichia coli) was 16 µg/mL (≈ 30.4 µM) and the MIC (Pseudomonas aeruginosa) was 64 µg/mL (≈ 122 µM). For the same compound, the MIC (Proteus vulgaris) was 128 µg/mL (≈ 243 µM), the MIC (Klebsiella pneumoniae [8]) was 32 µg/mL (≈ 60.8 µM) and the MIC (Staphylococcus aureus [9]) was 0.25 µg/mL (≈ 0.475 µM).
`CNC(=N)c1ccc2cc(-c3ccc(Oc4ccc(-c5cc6ccc(C(=N)NC)cc6[nH]5)nc4)cc3)[nH]c2c1` showed an MIC (Staphylococcus aureus [1]) of 2 µg/mL (≈ 3.89 µM), an MIC [2] greater than 128 µg/mL and an MIC (Citrobacter freundii) of 16 µg/mL (≈ 31.2 µM). For the same compound, the MIC (Enterococcus faecalis [3]) was 2 µg/mL (≈ 3.89 µM), the MIC (Providencia rettgeri) was 128 µg/mL (≈ 249 µM) and the MIC (Klebsiella pneumoniae [4]) was 64 µg/mL (≈ 125 µM). The MIC [5] was 0.25 µg/mL (≈ 0.487 µM), the MIC (Klebsiella pneumoniae [6]) was 64 µg/mL (≈ 125 µM) and the MIC (Enterococcus faecalis [7]) was 2 µg/mL (≈ 3.89 µM). For the same compound, the MIC (Escherichia coli) was 16 µg/mL (≈ 31.2 µM), the MIC (Pseudomonas aeruginosa) was 64 µg/mL (≈ 125 µM) and the MIC (Enterococcus faecium) was 1 µg/mL (≈ 1.95 µM). It also gave an MIC (Proteus vulgaris) of 128 µg/mL (≈ 249 µM), an MIC (Klebsiella pneumoniae [8]) of 64 µg/mL (≈ 125 µM) and an MIC (Staphylococcus aureus [9]) of 2 µg/mL (≈ 3.89 µM).
For `CNC(=N)c1ccc2cc(-c3ccc(Oc4ccc(-c5cc6ccc(C(=N)NC)cc6[nH]5)c(C(F)(F)F)c4)cn3)[nH]c2c1`, the MIC (Staphylococcus aureus [1]) was 0.5 µg/mL (≈ 0.86 µM), the MIC [2] was 64 µg/mL (≈ 110 µM) and the MIC (Citrobacter freundii) was 16 µg/mL (≈ 27.5 µM). For the same compound, the MIC (Enterococcus faecalis [3]) was 1 µg/mL (≈ 1.72 µM), the MIC (Providencia rettgeri) was 64 µg/mL (≈ 110 µM) and the MIC (Klebsiella pneumoniae [4]) was 16 µg/mL (≈ 27.5 µM). For the same compound, the MIC [5] was 0.25 µg/mL (≈ 0.43 µM), the MIC (Klebsiella pneumoniae [6]) was 32 µg/mL (≈ 55 µM) and the MIC (Enterococcus faecalis [7]) was 1 µg/mL (≈ 1.72 µM). For the same compound, the MIC (Escherichia coli) was 8 µg/mL (≈ 13.8 µM), the MIC (Pseudomonas aeruginosa) was 64 µg/mL (≈ 110 µM) and the MIC (Enterococcus faecium) was 0.5 µg/mL (≈ 0.86 µM). The MIC (Proteus vulgaris) was 64 µg/mL (≈ 110 µM), the MIC (Klebsiella pneumoniae [8]) was 16 µg/mL (≈ 27.5 µM) and the MIC (Staphylococcus aureus [9]) was 0.5 µg/mL (≈ 0.86 µM).
For `CN(C)C(=N)c1ccc2cc(-c3ccc(Oc4ccc(-c5cc6ccc(C(=N)N(C)C)cc6[nH]5)c(Cl)c4)cc3)[nH]c2c1`, the MIC (Staphylococcus aureus [1]) was 8 µg/mL (≈ 13.9 µM), the MIC [2] was greater than 128 µg/mL and the MIC (Citrobacter freundii) was 64 µg/mL (≈ 111 µM). It also gave an MIC (Enterococcus faecalis [3]) of 16 µg/mL (≈ 27.8 µM), an MIC (Providencia rettgeri) greater than 128 µg/mL and an MIC (Klebsiella pneumoniae [4]) greater than 128 µg/mL. The MIC [5] was 2 µg/mL (≈ 3.48 µM), the MIC (Klebsiella pneumoniae [6]) was greater than 128 µg/mL and the MIC (Enterococcus faecalis [7]) was 16 µg/mL (≈ 27.8 µM). The MIC (Escherichia coli) was 32 µg/mL (≈ 55.6 µM), the MIC (Pseudomonas aeruginosa) was greater than 128 µg/mL and the MIC (Enterococcus faecium) was 16 µg/mL (≈ 27.8 µM). The MIC (Proteus vulgaris) was 128 µg/mL (≈ 223 µM), the MIC (Klebsiella pneumoniae [8]) was 128 µg/mL (≈ 223 µM) and the MIC (Staphylococcus aureus [9]) was 2 µg/mL (≈ 3.48 µM).
Work on `CN(C)C(=N)c1ccc2cc(-c3ccc(Oc4ccc(-c5cc6ccc(C(=N)N(C)C)cc6[nH]5)cn4)cc3)[nH]c2c1` yielded an MIC (Staphylococcus aureus [1]) of 0.5 µg/mL (≈ 0.923 µM), an MIC [2] of 128 µg/mL (≈ 236 µM) and an MIC (Citrobacter freundii) of 4 µg/mL (≈ 7.38 µM). For the same compound, the MIC (Enterococcus faecalis [3]) was 2 µg/mL (≈ 3.69 µM), the MIC (Providencia rettgeri) was 8 µg/mL (≈ 14.8 µM) and the MIC (Klebsiella pneumoniae [4]) was 4 µg/mL (≈ 7.38 µM). For the same compound, the MIC [5] was 0.25 µg/mL (≈ 0.462 µM), the MIC (Klebsiella pneumoniae [6]) was 8 µg/mL (≈ 14.8 µM) and the MIC (Enterococcus faecalis [7]) was 2 µg/mL (≈ 3.69 µM). For the same compound, the MIC (Escherichia coli) was 4 µg/mL (≈ 7.38 µM), the MIC (Pseudomonas aeruginosa) was 64 µg/mL (≈ 118 µM) and the MIC (Enterococcus faecium) was 1 µg/mL (≈ 1.85 µM). For the same compound, the MIC (Proteus vulgaris) was 8 µg/mL (≈ 14.8 µM), the MIC (Klebsiella pneumoniae [8]) was 8 µg/mL (≈ 14.8 µM) and the MIC (Staphylococcus aureus [9]) was 0.25 µg/mL (≈ 0.462 µM).
In the case of `CC(C)NC(=N)c1ccc2cc(-c3ccc(Oc4ccc(-c5cc6ccc(C(=N)NC(C)C)cc6[nH]5)c(C(F)(F)F)c4)cn3)[nH]c2c1`, the MIC (Staphylococcus aureus [1]) is reported as 0.5 µg/mL (≈ 0.784 µM), the MIC [2] is reported as 32 µg/mL (≈ 50.2 µM) and the MIC (Citrobacter freundii) is reported as 8 µg/mL (≈ 12.5 µM). It also gave an MIC (Enterococcus faecalis [3]) of 0.5 µg/mL (≈ 0.784 µM), an MIC (Providencia rettgeri) of 32 µg/mL (≈ 50.2 µM) and an MIC (Klebsiella pneumoniae [4]) of 16 µg/mL (≈ 25.1 µM). For the same compound, the MIC [5] was 0.5 µg/mL (≈ 0.784 µM), the MIC (Klebsiella pneumoniae [6]) was 16 µg/mL (≈ 25.1 µM) and the MIC (Enterococcus faecalis [7]) was 0.5 µg/mL (≈ 0.784 µM). For the same compound, the MIC (Escherichia coli) was 8 µg/mL (≈ 12.5 µM), the MIC (Pseudomonas aeruginosa) was 32 µg/mL (≈ 50.2 µM) and the MIC (Enterococcus faecium) was 0.5 µg/mL (≈ 0.784 µM). It also gave an MIC (Proteus vulgaris) of 16 µg/mL (≈ 25.1 µM), an MIC (Klebsiella pneumoniae [8]) of 16 µg/mL (≈ 25.1 µM) and an MIC (Staphylococcus aureus [9]) of 0.5 µg/mL (≈ 0.784 µM).
`CNC(=N)c1ccc2cc(-c3ccc(Oc4ccc(-c5cc6ccc(C(=N)NC)cc6[nH]5)cn4)cc3)[nH]c2c1` was tested, and the MIC (Staphylococcus aureus [1]) was 0.25 µg/mL (≈ 0.487 µM), the MIC [2] was 128 µg/mL (≈ 249 µM) and the MIC (Citrobacter freundii) was 128 µg/mL (≈ 249 µM). For the same compound, the MIC (Enterococcus faecalis [3]) was 1 µg/mL (≈ 1.95 µM), the MIC (Providencia rettgeri) was greater than 128 µg/mL and the MIC (Klebsiella pneumoniae [4]) was 128 µg/mL (≈ 249 µM). It also gave an MIC [5] of 0.125 µg/mL (≈ 0.243 µM), an MIC (Klebsiella pneumoniae [6]) greater than 128 µg/mL and an MIC (Enterococcus faecalis [7]) of 1 µg/mL (≈ 1.95 µM). The MIC (Escherichia coli) was 16 µg/mL (≈ 31.2 µM), the MIC (Pseudomonas aeruginosa) was greater than 128 µg/mL and the MIC (Enterococcus faecium) was 0.25 µg/mL (≈ 0.487 µM). For the same compound, the MIC (Proteus vulgaris) was greater than 128 µg/mL, the MIC (Klebsiella pneumoniae [8]) was greater than 128 µg/mL and the MIC (Staphylococcus aureus [9]) was 0.25 µg/mL (≈ 0.487 µM).
Work on `COc1cc(Oc2ccc(-c3cc4ccc(C(=N)NC(C)C)cc4[nH]3)cc2)ccc1-c1cc2ccc(C(=N)NC(C)C)cc2[nH]1` yielded an MIC (Staphylococcus aureus [1]) of 0.25 µg/mL (≈ 0.418 µM), an MIC [2] greater than 128 µg/mL and an MIC (Citrobacter freundii) of 32 µg/mL (≈ 53.4 µM). For the same compound, the MIC (Enterococcus faecalis [3]) was 1 µg/mL (≈ 1.67 µM), the MIC (Providencia rettgeri) was 64 µg/mL (≈ 107 µM) and the MIC (Klebsiella pneumoniae [4]) was 64 µg/mL (≈ 107 µM). The MIC [5] was 0.125 µg/mL (≈ 0.209 µM), the MIC (Klebsiella pneumoniae [6]) was 64 µg/mL (≈ 107 µM) and the MIC (Enterococcus faecalis [7]) was 0.25 µg/mL (≈ 0.418 µM). For the same compound, the MIC (Escherichia coli) was 16 µg/mL (≈ 26.7 µM), the MIC (Pseudomonas aeruginosa) was 128 µg/mL (≈ 214 µM) and the MIC (Enterococcus faecium) was 0.25 µg/mL (≈ 0.418 µM). For the same compound, the MIC (Proteus vulgaris) was 64 µg/mL (≈ 107 µM), the MIC (Klebsiella pneumoniae [8]) was 64 µg/mL (≈ 107 µM) and the MIC (Staphylococcus aureus [9]) was 0.25 µg/mL (≈ 0.418 µM).
Compound `CN[C@H](CC(C)C)C(=O)N[C@H]1C(=O)N[C@@H](CC(N)=O)C(=O)N[C@H]2C(=O)N[C@H]3C(=O)N[C@H](C(=O)N[C@H](C(=O)O)c4cc(O)cc(O)c4-c4cc3ccc4O)[C@H](O)c3ccc(c(Cl)c3)Oc3cc2cc(c3O[C@@H]2O[C@H](CO)[C@@H](O)[C@H](O)[C@H]2O[C@H]2C[C@](C)(N)[C@H](O)[C@H](C)O2)Oc2ccc(cc2Cl)[C@H]1O` [VANCOMYCIN] has an MIC [5] of 0.5 µg/mL (≈ 0.345 µM) and an MIC (Enterococcus faecalis [7]) of 1 µg/mL (≈ 0.69 µM).
